# Assays:
# [1] = target: T1, EbPPK2 (polyphosphate kinase 2 class III from an Erysipelotrichaceae bacterium) (Erysipelotrichaceae bacterium, UniProt P0DY74); test: HPLC conversion to NDP/NTP; format: biochemical; details: 1 mM NMP, 1 μM enzyme, 6.1 g/L sodium polyphosphate, 20 mM MgCl2, 20 mM Tris pH 8, 30 °C, 10 min
# T1 construct: gene DHS57_05705; purified; 146 kDa homotetramer
# T1 sequence (P0DY74 1-298): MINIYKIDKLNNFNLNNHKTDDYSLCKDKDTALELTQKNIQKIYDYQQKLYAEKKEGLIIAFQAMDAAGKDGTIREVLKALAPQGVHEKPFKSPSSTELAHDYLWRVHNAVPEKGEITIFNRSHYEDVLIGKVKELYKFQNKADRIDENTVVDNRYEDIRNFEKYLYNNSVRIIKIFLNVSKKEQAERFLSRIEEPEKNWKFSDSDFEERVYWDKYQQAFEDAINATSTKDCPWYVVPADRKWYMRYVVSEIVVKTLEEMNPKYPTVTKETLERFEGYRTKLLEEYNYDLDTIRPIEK
# [2] = target: T1, EbPPK2 (polyphosphate kinase 2 class III from an Erysipelotrichaceae bacterium); test: X-ray crystal structure; details: 1.7 Å; ternary complex with polyP and Mg2+; nucleotide-binding pocket of the active site
compound,measurement,setting,value
"Nc1ncnc2c1ncn2[C@@H]1O[C@H](COP(=O)(O)O)[C@@H](O)[C@H]1O [1a, AMP]",HPLC conversion to NDP/NTP,[1],"Starting from AMP (1a), the reaction approached a distribution of AMP"
"Nc1nc2c(ncn2[C@@H]2O[C@H](COP(=O)(O)O)[C@@H](O)[C@H]2O)c(=O)[nH]1 [5a, GMP]",HPLC conversion to NDP/NTP,[1],GMP and GMP-like analogues were phosphorylated more slowly by EbPPK
"Nc1ncnc2c1ncn2[C@@H]1O[C@H](COP(=O)(O)OP(=O)(O)CP(=O)(O)O)[C@@H](O)[C@H]1O [adenosine-5′-[(β,γ)-methyleno]triphosphate]",X-ray crystal structure,[2],"EbPPK2 in complex with the non-hydrolysable ATP analogue adenosine-5′-[(β,γ)-methyleno]triphosphate (ACP) and polyP (PDB: 9IGQ)"
